We go through 2 compounds from patent US10188629B2, “Prodrug of green tea epigallocatechin-3-gallate (pro-EGCG) for use in the treatment of endometriosis” (The Hong Kong Polytechnic University, priority 2012, dated 2019).

SMILES strings stand for the structures. Entries after “also recorded” stand apart in the source; their conditions may differ.

Data set [1] has as its system apoptotic cells in the endometriotic lesions. The experiment in a line: Apoptosis in endometriotic lesions by Cellvizio YO-PRO-1 imaging and TUNEL staining. The data set is classed as in vivo, mice. Particulars: after 4 weeks. The procedure:
At the end of intervention, functional angiogenesis of the endometriotic lesions (n=8 per group) was monitored by measuring the flow of fluorescence dye in the new microvessels developed in the implants using a Cellvizio® LAB LSU-488 system with a ProFlex Microprobe S1500 (Mauna Kea Technologies, Paris) as previously described (Xu H, et al. Fertil Steril 2011; 96:1021-8.). A total of 10 mg/ml of FITC-Dextran was injected intravenously into each mouse prior to imaging. Total vessel length (μm) and area (μm^2) and functional capillary length (μm^−1) and area density were measured using Cellvizio® LAB Vessel Detection software, and averaged from 4 perpendicular regions of the lesions in replicates. At the same time, apoptotic cells in the lesions were captured by Cellvizio-LAB 488 with a ProFlex MiniO/100 microprobe using Cellvizio® LAB I/C Viewer software (Mauna Kea Technologies). A total of 10 μl of 10 μM YO-PRO®-1 iodide in DSMO was injected into the lesion area.
The total number of apoptotic cells was counted and averaged from the 4 perpendicular regions of the lesions in replicates as described above. Both IVIS and Cellvizio imaging procedures were performed under general anesthesia with isoflurane (Baxter, Ill.), and the mice were observed until fully recovered.
TUNEL labeling for in situ apoptotic cells was performed using an ApopTag Peroxidase In Situ Apoptosis Detection Kit (Temecula, Calif.) according to the manufacturer's instructions. The total numbers of TUNEL-positive stained cells were counted. The mean numbers of apoptotic cells were calculated from 5 separated sections from each animal within the treatment group and are presented as numbers per lesion as above. […] Each section was evaluated by both examiners, who were blinded to the experimental groups and results.

Data set [2] concerns human prostate, breast, leukemic, and simian virus 40-transformed cells. Conditions: cited from earlier work.
For a further data set, the system named is cancer cells. Particulars: cited from earlier work.
Data set [3] has as its system endometriotic lesions (experimental endometriosis). The experiment in a line: Lesion size, weight and histology at end of intervention. The data set is classed as in vivo, mice. Particulars: for lesion size compared to control group / lesion weight compared to control group / development and histology of the endometriotic lesions: after 4 weeks i.p. once per day; for lesion size compared to control group / lesion weight compared to control group: EGCG, pro-EGCG 50 mg/kg, vitamin E 20 mg/kg; for development and histology of the endometriotic lesions: microscopic examination. The text has this:
In this study, endometrial tissues from eight-week-old female CMV-Luc mice (n=15) were acquired for transplantation into nonluminescent NOD-SCID mice (n=32). The mouse endometrium was obtained during the proliferating estrous stage, and biopsies 2 mm in diameter were obtained with a sterile dermal biopsy punch (Miltex, NY). The biopsies were immediately washed in prewarmed, phenol-red-free DMEM/F-12 medium (Sigma) to remove residual blood and mucus, and the samples were maintained in serum-free DMEM/F-12 medium before transplantation (Bruner-Tran K L, et al. J Clin Endocrinol Metab 2009; 94:2489-94). Cultured endometrial biopsies were randomly allocated for transplantation.
Five mouse endometrial biopsies per treatment group were implanted into a single subcutaneous pocket created is the abdominal wall of the mice along the ventral midline immediately below the umbilicus. All of the surgical procedures were performed under general anesthesia with isoflurane (Baxter, IL), and the mice were monitored until they fully recovered.
At the end of intervention, size of the endometriotic lesions was determined as the longest length and perpendicular width according to a venire caliper and was calculated as 0.52×width^2×length in mm^3. The endometrial implants, together with subcutaneous and muscle layers, were removed from the abdomen wall for detailed histological examination and specific staining analysis.
Paraffin sections (n=4 per group) were prepared for standard hematoxylin and eosin (H&E) staining, angiogenesis immunostaining and TUNEL staining as previously described (Xu H, et al. Hum Reprod 2009; 24:608-18.). Immunohistochemistry staining of in situ angiogenesis was performed by the immunoperoxidase method using a MACH 3 HRP Polymer Kit (Biocare Medical, Concord), and counterstained using methyl green or blue solution.

A short description of data set [4]: Oxygen radical absorbance capacity (ORAC) in plasma and lesions. The data set is classed as in vivo, mice. Particulars: for ORAC in endometriotic lesions compared between treatment groups / ORAC in endometriotic lesions compared to saline group: lesions after intervention; for ORAC in plasma compared between treatment groups / ORAC in plasma compared to saline group: plasma during intervention. The text has this: Pharmacokinetics of EGCG and pro-EGCG in the animals were studied by measuring the corresponding EGCG and pro-EGCG concentrations (EGCG in the EGCG group, pro-EGCG in the pro-EGCG group) in plasma during the intervention and also in lesions at the end of intervention. EGCG and pro-EGCG were quantified by analytical methods as previously described (Lam W H, et al. Bioorg Med Chem. 2004; 510:69-93; Chu K O, et al. J Chromat B 2004; 810:187-95; Chu K O, et al. Anal Chim Acta 2004; 510:69-76). Anti-oxidative and anti-angiogenesis capacities of the samples were also studied by measuring oxygen radical absorbance capacity (ORAC) using a modified phycoerythrin fluorescence decay assay as previously described (Wang C C, et al. Clin Chem 2004; 50:952-4), and vascular endothelial growth factor (VEGF) concentrations were measured using a commercial ELISA kit (Uscn Life Science Inc., TX) according to the manufacturer's manual. Blood samples (n=8 per group) were collected from the tail vein once per week, and plasma was prepared by immediate centrifugation. Implants without subcutaneous and muscle layers (n=4 per group) were removed from the abdominal wall, and the endometriotic lesions were frozen. All of the samples were kept in −80° C. prior to analysis.

Data set [5] in a line: General tolerability and body weight during the intervention. Conditions: i.p. once per day, 4 weeks; EGCG, pro-EGCG 50 mg/kg, vitamin E 20 mg/kg. The procedure: Immediately after the transplantation, the mice were randomly assigned to receive either vehicle (n=8; sham control), vitamin E (n=8; anti-oxidant control, 20 mg/kg), EGCG (n=8; anti-angiogenesis control, 50 mg/kg, ≈1.5 mg/30 g) or pro-EGCG (n=8; 50 mg/kg).
Dulbecco's phosphate-buffered saline (PBS, Sigma) was used as solvent to dissolve the drugs. These doses were selected because their significant an angiogenic and anti-oxidative effects have been reported in mice (Sang S, et al. Chem Res Toxicol 2005; 18:1762-9; Villayandre B M, et al. Brain Research 2004; 1028, 148-55). The treatments were administered once per day via intraperitoneal injections for a consecutive 4-week period.

For data set [6] the following is noted: cited from earlier work.
The mark [7] stands for this setting: after 4 weeks, 50 mg/kg i.p. once per day.

`CC(=O)Oc1cc(OC(C)=O)c2c(c1)O[C@H](c1cc(OC(C)=O)c(OC(C)=O)c(OC(C)=O)c1)[C@H](OC(=O)c1cc(OC(C)=O)c(OC(C)=O)c(OC(C)=O)c1)C2` [pro-EGCG, (−)-EGCG octaacetate]: in data set [1], the “apoptotic cell numbers in the lesions compared with EGCG group” value is on record as “significantly higher than the number in the EGCG group” and the “total apoptotic cell numbers in the lesions compared to saline group” value is recorded as “significantly increased”. In addition, the “potency in inhibition of proliferation and transforming activity and induction of apoptosis, compared with EGCG” value in data set [2] is recorded as “much higher potency than EGCG”. Also, in the data set on cancer cells, the cell death induction entry is on record as “cell death induction” and the proteasome inhibition result is reported as “exhibited proteasome inhibition”. For the same compound, in data set [3], the “lesion size compared to control group” value is recorded as “significantly decreased”; the “lesion weight compared to control group” value was “significantly decreased”; the “development and histology of the endometriotic lesions” value is “poorly developed; also recorded: degraded and almost detached from the peritoneal muscle layers”. In addition, in data set [3] (setting [7]), the “lesion size compared with EGCG-treated mice” value was “significantly smaller” and the “lesion weight compared with EGCG-treated mice” value was “lighter”. In data set [4], the “ORAC in endometriotic lesions compared between treatment groups” value is “significantly higher than in the EGCG and vitamin E groups”; the “ORAC in endometriotic lesions compared to saline group” value is on record as “significantly increased”; the “ORAC in plasma compared between treatment groups” value is “significantly higher than in the EGCG and vitamin E groups”; the “ORAC in plasma compared to saline group” value is reported as “significantly increased”.
As for `O=C(O[C@@H]1Cc2c(O)cc(O)cc2O[C@@H]1c1cc(O)c(O)c(O)c1)c1cc(O)c(O)c(O)c1` [EGCG, (−)-epigallocatechin-3-gallate], the “total apoptotic cell numbers in the lesions compared to saline group” value in data set [1] is “significantly increased”. Besides, the “signs of stress, intolerance or toxic responses to administration” value in data set [5] is “No signs of stress, intolerance to anesthesia, surgery or implantation or any toxic responses”. For the same compound, in data set [3], the “lesion size compared to control group” value was “significantly decreased”; the “lesion weight compared to control group” value is listed as “significantly decreased”; the “development and histology of the endometriotic lesions” value was “poorly developed; also recorded: small and loosely attached to the adjacent tissues”. For the same compound, in data set [4], the “ORAC in endometriotic lesions compared between treatment groups” value is given as “not significantly different from the vitamin E group”, the “ORAC in endometriotic lesions compared to saline group” value is recorded as “significantly increased”, the “ORAC in plasma compared between treatment groups” value is “not significantly different from the vitamin E group” and the “ORAC in plasma compared to saline group” value is on record as “significantly increased”. For the same compound, in data set [6], the bioavailability entry is recorded as “poor bioavailablity”. Also, the “stability under physiological conditions” value in data set [6] (physiological conditions) is “notably unstable”.
